For one data set, the system named is psoriasis. Particulars: Phase III psoriasis study, topical formulation; not statistically significant; cited from earlier work.
Data set [1] is described as follows: Retention of dietary hydroxyproline in fish. Format: in vivo. To be noted: FIG. 1. The protocol: (§1) Trout were fed fish hydrolysate and fractions thereof to identify bioactive compounds (see Table 2).
The experiments where fish were fed a diet including varying levels of hydroxyproline were performed as described above.
The retention of hydroxyproline is statistically correlated to the dietary level. Low dietary levels (0.8 g per kg diet) give retention of close to 100% while higher dietary levels (>4.5 g per kg diet) gives retention of 20-30%.

The test system of data set [2] is Atlantic salmon (Salmo salar). The experiment in a line: 88 days growth experiment, growth and feed performance. In kind it is in vivo. To be noted: 88 days feeding. An excerpt:
The diets used were composed such that they are equal in protein, lipid and energy, and designed to vary only in level of Hydroxyproline. The small amounts of Hydroxyproline added (L-4-Hydroksyproline, >99.0% pure, Fluka BioChemika. Sigma-Aldrich Chemie GmbH) were exchanged with fish meal, and the diets were otherwise adjusted with the content of raw wheat to secure equal chemical composition. Five different levels of Hydroxyproline were used in a regression design with two replicates for each level, except the diet without Hydroxyproline addition that was run in triplicate tanks. The levels used of hydroxyproline were 0, 0.7 gkg^−1, 1.4 gkg^−1, 2.8 gkg^−1 and 5.6 gkg^−1. As a negative control, Proline (L-Proline, (Hydroxy-L-Proline Free) Sigma grade, Sigma Chemical Company) was added to a level of 2.8 gkg^−1.
Atlantic salmon (Salmo salar) was obtained from Salmobreed May 2006. The fish was prevaccinated with Trippel Forte and was acclimated for 56 days before the trial started. The fish was given EWOS Opal Boost 50 3A, 3 mm pellets during this period. The fish was randomly distributed among 14 fiberglass tanks (1.5×1.5×1 m^3) with 80 fish per tank. Diet 1 and Diet 6 were run in triplicate tanks. Diet 2, Diet 3, Diet 4 and Diet 5 was run in duplicate tanks. Data are given also for a fish meal diet with no plant protein included. This diet was run simultaneously with fish of the same size, origin and treatment. This diet (Diet 7) was run in 2 m×2 m×1 m tanks in triplicate in a parallel experiment. The tanks were supplied with 75 I min^−1 of seawater taken from a depth of 50 m with average salinity of 3.2-3.3%. Water temperature was kept constant at 10.4±0.4° C. during the acclimatization and the experimental period, using a heat exchanger to adjust the sea water temperature. Throughout the experimental period of 88 days, the fish were exposed to 24 h artificial light. Great care was taken to reduce disturbance from the environment. Automatic feeders were used to add feed from 05.00 to 08.00 hrs and from 14.00 to 03.00 hrs. The level of feeding was regulated in such a way that offered feed was 110% of expected consumption based on daily monitoring of wasted feed. Uneaten feed was continuously removed by automatic collection and separated from feces using an Excess Fishfeed Collector (Holland Teknologi, Norway). Feed intake was measured daily as the difference between total feed given and total uneaten feed collected. Feed intake for the total experimental period was measured as the sum of the daily feed intakes, divided by feeding days and average fish weight during the experimental period; (start weight+final weight)/2. Feeding was sustained until the fish was sampled for analyses.
The six experimental diets were randomly assigned to the 14 tanks, with 3 replicate tanks for Diet 1 and Diet 6 and to duplicate tanks for the other experimental diets. Initial fish weights and lengths were recorded. Twenty fish representing the weight ranges were sampled, killed by a blow on the head, frozen and kept at −80° C. pending analyses of fish at start. Final weights were determined for each fish in all tanks. At the end of the feeding period, the fish were anaesthetized with Eugonol (iso-eugunol was diluted 1:1 with ethanol and the diluted solution was added 15 ml per m^3 water in the tanks). After about 15 min, 10 fish from each tank were sampled, killed by a blow in the head, gutted and weight of slaughtered fish, liver and viscera were noted. Five other fish from each tank were pooled and frozen for pending analyses.
The 88 days growth experiment was run successfully with a thermal growth coefficient (TGC) of 2.5 for the fish meal control diet. Some loss of fish occurred during the experimental period and some fish seemed not to develop normally. […]

The nature of data set [3]: Blood plasma levels of hydroxyproline in trout fed 90 days. In kind it is in vivo. Particulars: for blood plasma levels of Hydroxyproline: trout fed for 90 days, FIG. 2. Here is the method: as §1
The y axis is plasma levels in micromoles per 100 ml and the x-axis is the dietary level of component in g per kg diet.

In data set [4] the test system is Atlantic salmon (Salmo salar). The experiment in a line: Subjective scoring of wounds on skin, damage on dorsal fin and loss of shells. To be noted: scale from 0 (no damage) to 5 (severe damages), 88 days feeding, Diets 2-5 = 0.7, 1.4, 2.8, 5.6 gkg−1 added hydroxyproline, mean ± SD. In kind it is in vivo. The protocol:
Wounds on skin, damages on dorsal fin and loss of shells were evaluated in the 10 salmons from each tank. The measure was subjectively based on a scale from 0 (no damage) to 5 (severe damages). The data and statistics are included in the table below (based on 110 measures) and shown in the figure based on average values for each tank). The statistics given are based on linear regression. […] (Table 3 and FIGS. 5, 6 and 7)

The mark [5] stands for this setting: added hydroxyproline gkg−1: Diet 2 0.7, Diet 3 1.4, Diet 4 2.8, Diet 5 5.6, mean ± SD.
Where [6] appears, read: at 2.9 gkg−1 added Hydroxyproline.

The structures appear in SMILES notation. Entries after “also recorded” stand apart in the source; their conditions may differ.

Results on two molecules are retold here after patent US20120004157A1, “HYDROXYPROLINE COMPOSITIONS AND USES THEREOF” (Bergen Teknologioverforing AS, priority 2007, published 2012).

In the case of `Nc1nc2c(Cc3cccnc3)c[nH]c2c(=O)[nH]1` [BCX-34], the “greater improvement in mean lesion scores in the treated group compared to placebos” value in the data set with psoriasis is 14%.

With `O=C(O)[C@@H]1C[C@@H](O)CN1` [Hydroxyproline, L-4-Hydroksyproline], in data set [1] (higher dietary levels (>4.5 g per kg diet)), the “retention of Hydroxyproline in the fish” value was 20-30%. In addition, the “retention of Hydroxyproline in the fish” value in data set [1] (low dietary levels (0.8 g per kg diet)) was ~100%. For the same molecule, the “nutritional requirement indicated by the growth curve” value in data set [2] is recorded as 2.5-3 g per kg diet. For the same molecule, in data set [2] (setting [5]), the “Body weight at end, g” value is listed as “growth promoting effect” and the “Weight gain, g/fish” value was “growth promoting effect”. In data set [2] (setting [6]), the “increase of weight gain compared with no Hydroxyproline added (Diet 1)” value came to 14.0% and the “weight gain at the maximum of the regression equation” value is 155 g. Besides, in data set [2] (polynomial regression, n=11), the “added Hydroxyproline at maximum of the weight gain regression equation” value came out at 2.9 gkg−1. Besides, in data set [2] (specific growth rate, Diets 2-5 = 0.7, 1.4, 2.8, 5.6 gkg−1 added hydroxyproline, mean ± SD), the SGR entry is “growth promoting effect”. Further, in data set [2] (thermal growth coefficient, Diets 2-5 = 0.7, 1.4, 2.8, 5.6 gkg−1 added hydroxyproline, mean ± SD), the TGC result was “growth promoting effect”. Moreover, in data set [3] (from retention, plasma and tissue data), the “dietary level above which the negative effects are eliminated” value is given as 3-4 g per kg diet. In addition, in data set [3] (dietary level 0.8 g per kg), the “blood plasma levels of Hydroxyproline” value was “much lower than previously known (normal values); also recorded: much lower than earlier published (normal values)”. In addition, in data set [3] (dietary levels >4 g per kg), the “blood plasma levels of Hydroxyproline” value was “very high plasma levels”. Also, in data set [4], the “Damage on dorsal fin” value is “lesser degree of damage to the dorsal fin”, the Loss of shells entry is on record as “lower levels of fish scale loss” and the Wounds on skin result is listed as “lesser degree of wounding”.
